Data reported in patent US8637683B2, “Macrocyclic lactone derivatives for the treatment of cancer” (Piramal Enterprises Limited, priority 2009, dated 2014).
In brackets after ≈: the same amount, converted by molar mass.

What was measured:
Format in all cases: cell-based, human
UXF 1138L = assay: Monolayer assay (modified propidium iodide), UXF 1138L; conditions: Uterus, 4 days of treatment
From the text: (§1) Oncotest GmbH, Germany's proprietary tumor cell line panel comprises 40 cell lines. These cell lines were derived from 15 different tumor histotypes, each represented by 1 to 6 different cell lines. Cell lines were established from cancer of the bladder (3), colon (4), head and neck (1), lung (6), breast (3), pancreas (3), prostate (4), ovary (2), kidney (3), liver (1), stomach (1) and the uteri body (1), as well as from melanoma (3), sarcoma (2) and pleuramesothelioma (3). Out of these 40 cell lines, 24 cell lines were established at Oncotest, from patient-derived tumor xenografts. […]
(§2) Stock solutions of the test compounds (330 μg/mL in DMSO) were prepared and stored in small aliquots (200 μL) at −20° C. […] Each concentration was evaluated in triplicate. […]
(§3) Cells were plated in 96-well flat-bottom microtiter plates at a cell density of 4,000 to 10,000 cells/well. […] To measure the viable cell number, the remaining adherent cells were killed and permeabilized by repeated freezing and thawing and PI fluorescence was measured using the Cytofluor 4000 microplate reader (excitation λ=530 nm, emission λ=620 nm), which was a measure for the number of cells which survived treatment. […] IC-values were calculated based on the principle of linear two-point curve fit. […]

RXF 486L = assay: Monolayer assay (modified propidium iodide), RXF 486L; conditions: Renal, 4 days of treatment
From the text: as §1, §2, §3

LIXF 575L = assay: Monolayer assay (modified propidium iodide), LIXF 575L; conditions: Liver, 4 days of treatment
From the text: as §1, §2, §3

MEXF 462NL = assay: Monolayer assay (modified propidium iodide), MEXF 462NL; conditions: Melanoma, 4 days of treatment
From the text: as §1, §2, §3

LNCAP = assay: Monolayer assay (modified propidium iodide), LNCAP; conditions: Prostate, 4 days of treatment
From the text: as §1, §2, §3

HCT 116 = assay: Monolayer assay (modified propidium iodide), HCT 116; conditions: HCT 116, Colon, 4 days of treatment
From the text: as §1, §2, §3

SACS2 = assay: Monolayer assay (modified propidium iodide), SACS2; conditions: SACS2, Sarcoma, 4 days of treatment
From the text: as §1, §2, §3

H 460 = assay: Monolayer assay (modified propidium iodide), H 460; conditions: H 460, Lung, 4 days of treatment
From the text: as §1, §2, §3

T 24 = assay: Monolayer assay (modified propidium iodide), T 24; conditions: T 24, Bladder, 4 days of treatment
From the text: (§4) Oncotest GmbH, Germany's proprietary tumor cell line panel comprises 40 cell lines. These cell lines were derived from 15 different tumor histotypes, each represented by 1 to 6 different cell lines. Cell lines were established from cancer of the bladder (3), colon (4), head and neck (1), lung (6), breast (3), pancreas (3), prostate (4), ovary (2), kidney (3), liver (1), stomach (1) and the uteri body (1), as well as from melanoma (3), sarcoma (2) and pleuramesothelioma (3). Out of these 40 cell lines, 24 cell lines were established at Oncotest, from patient-derived tumor xenografts. The other 16 cell lines were either provided by the NCI (Bethesda; MD, USA) or were purchased from ATCC (Rockville, Md., USA) or DSMZ (Braunschweig, Germany).
(§5) Cell lines were routinely passaged once or twice weekly and maintained in culture for upto 20 passages. All cells were grown at 37° C. in a humidified atmosphere with 5% CO2 in RPMI 1640 medium supplemented with 10% (v/v) fetal calf serum (FCS) and 0.1 mg/mL gentamicin (medium and all other components from PAA, Cölbe, Germany). […]
as §2
as §3, with “treatment. Pharmacological effects on cell proliferation and survival were expressed as Test/Control×100 (% T/C) values, with T and C representing the fluorescence read-outs for wells with and without test compound, respectively, i.e. T/C represents the ratio of viable cell numbers following incubation of cell line with/without test compound.” for “treatment.”

RXF 393NL = assay: Monolayer assay (modified propidium iodide), RXF 393NL; conditions: Renal, 4 days of treatment
From the text: as §1, §2, §3

OVCAR3 = assay: Monolayer assay (modified propidium iodide), OVCAR3; conditions: OVCAR3, Ovarian, 4 days of treatment
From the text: as §1, §2, §3

CAL 27 = assay: Monolayer assay (modified propidium iodide), CAL 27; conditions: CAL 27, Head and Neck, 4 days of treatment
From the text: as §1, §2, §3

PAXF 546L = assay: Monolayer assay (modified propidium iodide), PAXF 546L; conditions: Pancreas, 4 days of treatment
From the text: as §1, §2, §3

CXF 269L = assay: Monolayer assay (modified propidium iodide), CXF 269L; conditions: Colon, 4 days of treatment
From the text: as §4, §5, §2
as §3, with “treatment. Pharmacological effects on cell proliferation and survival were expressed as Test/Control×100 (% T/C) values, with T and C representing the fluorescence read-outs for wells with and without test compound, respectively, i.e. T/C represents the ratio of viable cell numbers following incubation of cell line with/without test compound.” for “treatment.”

LXF 289L = assay: Monolayer assay (modified propidium iodide), LXF 289L; conditions: Lung, 4 days of treatment
From the text: as §1, §2, §3

MDA 231 = assay: Monolayer assay (modified propidium iodide), MDA 231; conditions: MDA 231, Mammary, 4 days of treatment
From the text: as §4, §5, §2
as §3, with “treatment. Pharmacological effects on cell proliferation and survival were expressed as Test/Control×100 (% T/C) values, with T and C representing the fluorescence read-outs for wells with and without test compound, respectively, i.e. T/C represents the ratio of viable cell numbers following incubation of cell line with/without test compound.” for “treatment.”

PXF 1752L = assay: Monolayer assay (modified propidium iodide), PXF 1752L; conditions: Pleuramesothelioma, 4 days of treatment
From the text: as §1, §2, §3

C/C=C/C(O)C(C)/C=C/C(=N\O)C(C)C(O)C(C)C1OC(=O)/C(OC)=C/C(C)=C/C(C)C(O)C(CC)C(O)C(C)C/C(C)=C/C=C/C1OC (stereo not shown) [Example 7, (3Z,5E,13E,15E)-18-((5Z,6E,10E)-3,9-Dihydroxy-5-(hydroxymino)-4,8-dimethyldodeca-6,10-dien-2-yl)-9-ethyl-8,10-dihydroxy-3,17-dimethoxy-5,7,11,13-tetramethyl oxacyclooctadeca-3,5,13,15-tetraen-2-one]
IC50 (UXF 1138L; Homo sapiens, 96 h): 5 ng/mL (≈ 7.25 nM) | IC70 (UXF 1138L): 11.0 ng/mL (≈ 15.9 nM) | IC50 (RXF 486L; Homo sapiens, 96 h): 16 ng/mL (≈ 23.2 nM) | IC70 (RXF 486L): 39.0 ng/mL (≈ 56.5 nM) | IC50 (LIXF 575L; Homo sapiens, 96 h): < 0.1 ng/mL | IC70 (LIXF 575L): 2.0 ng/mL (≈ 2.9 nM) | IC50 (MEXF 462NL; Homo sapiens, 96 h): 3 ng/mL (≈ 4.35 nM) | IC70 (MEXF 462NL): 6.0 ng/mL (≈ 8.7 nM) | IC50 (LNCAP; Homo sapiens, 96 h): 3 ng/mL (≈ 4.35 nM) | IC70 (LNCAP): 15.0 ng/mL (≈ 21.7 nM) | IC70 (HCT 116): 5.0 ng/mL (≈ 7.25 nM) | IC50 (HCT 116; Homo sapiens, 96 h): 3 ng/mL (≈ 4.35 nM) | IC50 (SACS2; Homo sapiens, 96 h): 5 ng/mL (≈ 7.25 nM) | IC70 (SACS2): >1000 ng/mL | IC70 (H 460): 2.0 ng/mL (≈ 2.9 nM) | IC50 (H 460; Homo sapiens, NCI-H460, 96 h): 0.7 ng/mL (≈ 1.01 nM) | IC50 (T 24; Homo sapiens, 96 h): < 0.1 ng/mL | IC70 (T 24): 0.3 ng/mL (≈ 0.435 nM) | IC50 (RXF 393NL; Homo sapiens, 96 h): 7 ng/mL (≈ 10.1 nM) | IC70 (RXF 393NL): 1000 ng/mL (≈ 1450 nM) | IC50 (OVCAR3; Homo sapiens, OVCAR-3, 96 h): 0.4 ng/mL (≈ 0.58 nM) | IC70 (OVCAR3): >1000 ng/mL | IC70 (CAL 27): 1.0 ng/mL (≈ 1.45 nM) | IC50 (CAL 27; Homo sapiens, 96 h): < 0.1 ng/mL | IC50 (PAXF 546L; Homo sapiens, 96 h): 0.5 ng/mL (≈ 0.725 nM) | IC70 (PAXF 546L): >1000 ng/mL | IC70 (CXF 269L): 0.2 ng/mL (≈ 0.29 nM) | IC50 (CXF 269L; Homo sapiens, 96 h): < 0.1 ng/mL | IC50 (LXF 289L; Homo sapiens, 96 h): 6 ng/mL (≈ 8.7 nM) | IC70 (LXF 289L): 68.0 ng/mL (≈ 98.6 nM) | IC50 (MDA 231; Homo sapiens, MDA-MB-231, 96 h): < 0.1 ng/mL | IC70 (MDA 231): <0.1 ng/mL | IC50 (PXF 1752L; Homo sapiens, 96 h): 3 ng/mL (≈ 4.35 nM) | IC70 (PXF 1752L): 22.0 ng/mL (≈ 31.9 nM)
